In article PMC4128710 (Biochemical pharmacology, 2014):
Like-named read-outs stand apart in the source and are kept apart here.

What was measured:
[1] = test system: MIN-6 mouse pancreatic β cells; assay: Insulin release in MIN6 cells; type: cell-based; conditions: MIN-6 cells, 16.7 mM glucose, 1 h
[2] = molecular target: T1, A2BAR (Homo sapiens, UniProt P29275); assay: ERK1/2 phosphorylation in T24 cells
T1 sequence (P29275 1-332): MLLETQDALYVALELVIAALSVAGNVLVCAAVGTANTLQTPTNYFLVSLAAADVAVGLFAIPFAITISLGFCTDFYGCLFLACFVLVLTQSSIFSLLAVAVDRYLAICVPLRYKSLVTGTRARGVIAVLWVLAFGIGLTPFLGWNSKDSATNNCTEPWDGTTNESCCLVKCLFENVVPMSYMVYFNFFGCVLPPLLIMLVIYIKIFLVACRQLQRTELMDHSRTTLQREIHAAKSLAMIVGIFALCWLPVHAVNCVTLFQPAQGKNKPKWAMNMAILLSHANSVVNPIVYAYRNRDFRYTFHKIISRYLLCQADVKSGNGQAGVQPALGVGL

[3] = molecular target: T1, A2BAR; assay: Intracellular calcium mobilization in T24 cells; conditions: T-24, read-out: Max effect Calcium (% of effect of NECA)
[4] = molecular target: T2, mouse A2BAR (Mus musculus, UniProt Q60614); assay: β-Arrestin2 translocation in PathHunter CHO cells
T2 sequence (Q60614 1-332): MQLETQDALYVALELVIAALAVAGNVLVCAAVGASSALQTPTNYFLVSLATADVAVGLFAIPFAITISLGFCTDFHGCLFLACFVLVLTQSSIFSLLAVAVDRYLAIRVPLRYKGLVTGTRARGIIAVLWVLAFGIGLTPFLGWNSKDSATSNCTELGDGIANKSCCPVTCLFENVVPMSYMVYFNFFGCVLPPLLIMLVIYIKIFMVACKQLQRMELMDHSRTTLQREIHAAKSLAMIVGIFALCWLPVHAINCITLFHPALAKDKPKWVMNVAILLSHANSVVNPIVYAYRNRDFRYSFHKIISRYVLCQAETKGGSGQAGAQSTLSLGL

[5] = test system: mouse A2BAR; assay: β-Arrestin2 translocation in PathHunter CHO cells
[6] = molecular target: T1, A2BAR; assay: ERK1/2 phosphorylation in HEK293 cells
[7] = molecular target: T1, A2BAR; assay: cAMP accumulation in HEK293 cells overexpressing the A2BAR
[8] = molecular target: T1, A2BAR; assay: ERK1/2 phosphorylation in HEK293 cells overexpressing the A2BAR
[9] = molecular target: T1, A2BAR; assay: cAMP accumulation in T24 cells endogenously expressing the A2BAR
[10] = test system: A2BAR; assay: cAMP accumulation in COS-7 cells endogenously expressing the A2BAR
[11] = molecular target: T1, A2BAR; assay: cAMP accumulation in HEK293 cells endogenously expressing the A2BAR
[12] = molecular target: T1, A2BAR; assay: Intracellular calcium mobilization in HEK293 cells; conditions: HEK293, read-out: Max effect Calcium (% of effect of NECA)
[13] = molecular target: T1, A2BAR; assay: Intracellular calcium mobilization in HEK293 cells overexpressing the A2BAR
[14] = molecular target: T1, A2BAR; assay: cAMP accumulation in WM266 melanoma cells endogenously expressing the A2BAR; conditions: WM266, read-out: Max effect cAMP accumulation
[15] = molecular target: T1, A2BAR; assay: cAMP accumulation in 1321N1 astrocytoma cells endogenously expressing the A2BAR
[16] = molecular target: T1, A2BAR
[17] = HEK293, read-out: Max effect ERK1/2 (% of effect of NECA)
[18] = HEK293, read-out: Max effect cAMP (% of effect of NECA)

N#Cc1c(N)nc(SCC(N)=O)c(C#N)c1-c1ccc(OCC2CC2)cc1 [BAY, 2-[[6-amino-3,5-dicyano-4-[4-(cyclopropylmethoxy)phenyl]-2-pyridinyl]thio]acetamide]
Glucose stimulated insulin secretion [1]: induced insulin secretion
ERK1/2 stimulation ([2]; T24 cells): did not produce any stimulation
Emax ([2]; T-24, read-out: Max effect ERK1/2 (% of effect of NECA)): -9.4 ± 3.8%
Emax [3]: 2.3 ± 1.5%
EC50 [4]: 5620 ± 1240 nM
Kd [4]: 12300 nM
Emax ([4]; CHO, read-out: Max effect β-arrestin (% of effect of NECA)): 26.6 ± 3%
log (τ/KA) ([4]; β-Arrestin pathway): 4.30 ± 0.17
τ ([4]; β-Arrestin pathway, operational model, CHO mouse A2BAR): 0.25
Δlog (τ/Ka) ([4]; β-Arrestin pathway, relative to NECA): -1.43 ± 0.09
ΔΔlog (τ/KA) ([5]; β-Arrestin versus cAMP reference pathway): 2.16
Bias ([5]; β-Arrestin versus cAMP, bias ≫1 disfavors the pathway): 145
EC50 [6]: 68.8 ± 4.7 nM
Emax [6, 17]: 38.3 ± 5.9%
EC50 [7]: 6.14 ± 1.61 nM
Kd [7]: 705 nM
Emax [7, 18]: 102 ± 1%
log (τ/KA) ([7]; cAMP pathway): 8.15 ± 0.38
τ ([7]; cAMP pathway, operational model, A2BAR-overexpressing HEK293): 100
Δlog (τ/Ka) ([7]; cAMP pathway, relative to NECA): 0.73 ± 0.04
EC50 [8]: 28.9 ± 4.1 nM
Kd [8]: 59.5 nM
log (τ/KA) ([8]; ERK1/2 pathway): 7.02 ± 0.44
τ ([8]; ERK1/2 pathway, operational model, A2BAR-overexpressing HEK293): 0.62
Δlog (τ/Ka) ([8]; ERK1/2 pathway, relative to NECA): 1.39 ± 0.17
ΔΔlog (τ/KA) ([8]; ERK1/2 versus cAMP reference pathway): -0.66
Bias ([8]; ERK1/2 versus cAMP, bias ≫1 disfavors the pathway): 0.22
Emax [8, 17]: 38.4 ± 3.3%
EC50 ([9]; EC50 cAMP accumulation, T24 cells, 5 nM A2BAR siRNA): 102 ± 17 nM
EC50 ([9]; EC50 cAMP accumulation, T24 cells, 50 nM A2BAR siRNA): 127 ± 31 nM
EC50 ([9]; EC50 cAMP accumulation, T24 cells, 500 nM A2BAR siRNA): 93 ± 19 nM
EC50 ([9]; EC50 cAMP accumulation, T24 cells, absence of A2BAR siRNA): 98 ± 22 nM
EC50 ([9]; EC50 cAMP, T24 cells): 43 ± 17.7 nM
maximum agonist effect, cAMP accumulation (NECA as 100%) ([9]; T24 cells, 5 nM A2BAR siRNA): 54 ± 4%
maximum agonist effect, cAMP accumulation (NECA as 100%) ([9]; T24 cells, 50 nM A2BAR siRNA): 48 ± 6%
maximum agonist effect, cAMP accumulation (NECA as 100%) ([9]; T24 cells, 500 nM A2BAR siRNA): 36 ± 3%
maximum agonist effect, cAMP accumulation (NECA as 100%) ([9]; T24 cells, absence of A2BAR siRNA): 68 ± 7%
τ value (operational model), cAMP accumulation ([9]; T24 cells, siRNA silencing / overexpression methods): 1.19
Emax ([9]; T-24, read-out: Max effect cAMP (% of effect of NECA)): 62.9 ± 9.6%
Max effect cAMP accumulation ([10]; NECA = 100): 98.3±3.7%
EC50 ([10]; read-out: EC50 cAMP accumulation): 7.9 ± 1.2 nM
EC50 [11]: 296 ± 146 nM
Emax [11, 18]: 73 ± 12.1%
τ value (operational model), cAMP accumulation ([11]; HEK293 cells, siRNA silencing / overexpression methods): 1.54
Emax [12]: -2.4 ± 1.7%
EC50 [13]: 1100 ± 390 nM
Kd [13]: 1670 nM
log (τ/KA) ([13]; Calcium pathway): 4.66 ± 0.35
τ ([13]; Calcium pathway, operational model, A2BAR-overexpressing HEK293): 0.08
ΔΔlog (τ/KA) ([13]; Calcium versus cAMP reference pathway): 4.22
Bias ([13]; Calcium versus cAMP, bias ≫1 disfavors the pathway): 16600
Emax [14]: 9.8 ± 1.7%
EC50 [15]: 113 ± 17 nM
Emax ([15]; 1321-N1, read-out: Max effect cAMP accumulation): 52.6 ± 3.1%
EC50 [16]: 45.3 ± 5.9 nM
Emax ([16]; PC-3, read-out: Max effect cAMP accumulation): 72.6 ± 5.1%
